Experimental data from US20170037014A1, “FUNGICIDAL PYRAZOLES” (E. I. DU PONT DE NEMOURS AND COMPANY, priority 2014, published 2017).

Tests used:
Septoria tritici = experiment: Test B: wheat leaf blotch, preventive spray on wheat seedlings, visual disease rating; type: in vivo; details: Zymoseptoria tritici, 50 ppm (*), 100 = 100% disease control, 0 = no control
Text: General protocol for preparing test suspensions for Tests A-D: the test compounds were first dissolved in acetone in an amount equal to 3% of the final volume and then suspended at the desired concentration (in ppm) in acetone and purified water (50/50 mix by volume) containing 250 ppm of the surfactant Trem® 014 (polyhydric alcohol esters). The resulting test suspensions were then used in Tests A-D. The test suspension was sprayed to the point of run-off on wheat seedlings. The following day the seedlings were inoculated with a spore suspension of Septoria tritici (the causal agent of wheat leaf blotch) and incubated in a saturated atmosphere at 24° C. for 48 h, and then moved to a growth chamber at 20° C. for 19 days, after which time visual disease ratings were made. In the Table, a rating of 100 indicates 100% disease control and a rating of 0 indicates no disease control (relative to the controls). A dash (−) indicates no test results. All results are for 250 ppm except where followed by an “*” which indicates 50 ppm, and where followed by an “**” which indicates 10 ppm

[1] = system: Puccinia recondita f sp. tritici; experiment: Test A: wheat leaf rust, preventive spray on wheat seedlings, visual disease rating; type: in vivo; details: 50 ppm (*), 100 = 100% disease control, 0 = no control
Text: General protocol for preparing test suspensions for Tests A-D: the test compounds were first dissolved in acetone in an amount equal to 3% of the final volume and then suspended at the desired concentration (in ppm) in acetone and purified water (50/50 mix by volume) containing 250 ppm of the surfactant Trem® 014 (polyhydric alcohol esters). The resulting test suspensions were then used in Tests A-D. The test suspension was sprayed to the point of run-off on wheat seedlings. The following day the seedlings were inoculated with a spore suspension of Puccinia recondita f sp. tritici (the causal agent of wheat leaf rust) and incubated in a saturated atmosphere at 20° C. for 24 h, and then moved to a growth chamber at 20° C. for 7 days, after which time visual disease ratings were made. In the Table, a rating of 100 indicates 100% disease control and a rating of 0 indicates no disease control (relative to the controls). A dash (−) indicates no test results. All results are for 250 ppm except where followed by an “*” which indicates 50 ppm, and where followed by an “**” which indicates 10 ppm

Botrytis cinerea = experiment: Test C: tomato Botrytis, preventive spray on tomato seedlings, visual disease rating; type: in vivo; details: Botrytis cinerea, 50 ppm (*), 100 = 100% disease control, 0 = no control
Text: General protocol for preparing test suspensions for Tests A-D: the test compounds were first dissolved in acetone in an amount equal to 3% of the final volume and then suspended at the desired concentration (in ppm) in acetone and purified water (50/50 mix by volume) containing 250 ppm of the surfactant Trem® 014 (polyhydric alcohol esters). The resulting test suspensions were then used in Tests A-D. The test suspension was sprayed to the point of run-off on tomato seedlings. The following day the seedlings were inoculated with a spore suspension of Botrytis cinerea (the causal agent of tomato Botrytis) and incubated in a saturated atmosphere at 20° C. for 48 h, and then moved to a growth chamber at 24° C. for 3 days, after which time visual disease ratings were made. In the Table, a rating of 100 indicates 100% disease control and a rating of 0 indicates no disease control (relative to the controls). A dash (−) indicates no test results. All results are for 250 ppm except where followed by an “*” which indicates 50 ppm, and where followed by an “**” which indicates 10 ppm

[2] = system: Blumeria graminis f sp. tritici; experiment: Test D: wheat powdery mildew, preventive spray on wheat seedlings, visual disease rating; type: in vivo; details: Blumeria graminis, 50 ppm (*), 100 = 100% disease control, 0 = no control
Text: General protocol for preparing test suspensions for Tests A-D: the test compounds were first dissolved in acetone in an amount equal to 3% of the final volume and then suspended at the desired concentration (in ppm) in acetone and purified water (50/50 mix by volume) containing 250 ppm of the surfactant Trem® 014 (polyhydric alcohol esters). The resulting test suspensions were then used in Tests A-D. The test suspension was sprayed to the point of run-off on wheat seedlings. The following day the seedlings were inoculated with a spore dust of Blumeria graminis f sp. tritici, (also known as Erysiphe graminis f. sp. tritici, the causal agent of wheat powdery mildew) and incubated in a growth chamber at 20° C. for 8 days, after which time visual disease ratings were made. In the Table, a rating of 100 indicates 100% disease control and a rating of 0 indicates no disease control (relative to the controls). A dash (−) indicates no test results. All results are for 250 ppm except where followed by an “*” which indicates 50 ppm, and where followed by an “**” which indicates 10 ppm

SMILES: CCC(C)c1c(C(O)c2ccc(F)cc2Cl)c(C)nn1C (stereo not drawn) [Compound 9, α-(2-chloro-4-fluorophenyl)-1,3-dimethyl-5-(1-methylpropyl)-1H-pyrazole-4-methanol]
- pest or weed control at 50 ppm (Septoria tritici): 99%
- pest or weed control at 50 ppm [1]: 100%
- pest or weed control at 50 ppm (Botrytis cinerea): 99%
- melting point: 128 to 131 °C
- pest or weed control at 50 ppm [2]: 99%

SMILES: Cc1nn(C)c(C(C)C)c1C(O)c1ccc(F)cc1Cl (stereo not drawn) [Compound 1, α-(2-chloro-4-fluorophenyl)-1,3-dimethyl-5-(1-methylethyl)-1H-pyrazole-4-methanol]
- pest or weed control at 50 ppm (Septoria tritici): 100%
- pest or weed control at 50 ppm [1]: 98%
- pest or weed control at 50 ppm (Botrytis cinerea): 33%
- melting point: 152 to 154 °C
- pest or weed control at 50 ppm [2]: 97%
